Source: patent US11319305B2, “Pyrimidine sulfamide derivative and preparation method and medical application thereof” (SHIJIAZHUANG SAGACITY NEW DRUG DEVELOPMENT CO., LTD., priority 2017, dated 2022)

Tests used:
CYP2C9 = target: T1, CYP2C9 (Homo sapiens, UniProt P11712); experiment: Human liver microsomal cytochrome P450 isozyme inhibition assay, CYP2C9; format: in vitro ADME; settings: human liver microsomes
T1 construct: Mixed human liver microsomes (HLM) were purchased from Corning Inc; tissue Corning Inc; host or cells: pooled human liver microsomes
T1 sequence (P11712 whole entry): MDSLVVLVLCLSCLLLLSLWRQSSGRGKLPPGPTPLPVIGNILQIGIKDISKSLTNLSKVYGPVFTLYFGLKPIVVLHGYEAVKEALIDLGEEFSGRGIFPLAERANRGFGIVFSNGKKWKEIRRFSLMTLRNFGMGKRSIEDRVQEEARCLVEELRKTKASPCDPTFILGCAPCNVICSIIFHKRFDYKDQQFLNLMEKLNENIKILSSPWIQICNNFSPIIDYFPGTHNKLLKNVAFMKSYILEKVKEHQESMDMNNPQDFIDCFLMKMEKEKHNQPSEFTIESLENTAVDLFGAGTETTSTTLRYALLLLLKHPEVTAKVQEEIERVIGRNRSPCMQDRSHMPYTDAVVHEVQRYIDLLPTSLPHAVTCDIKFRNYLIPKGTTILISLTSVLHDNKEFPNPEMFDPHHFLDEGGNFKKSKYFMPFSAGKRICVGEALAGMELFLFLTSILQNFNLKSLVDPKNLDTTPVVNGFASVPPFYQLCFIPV
Protocol: Experimental Embodiment 4: Human Liver Microsomal Cytochrome P450 Isozyme Inhibition Assay The purpose of the assay was to evaluate the inhibitory activity of the samples against human liver microsomal cytochrome P450 isozyme (CYP1A2, CYP2C9, CYP2C19, CYP2D6 and CYP3A4) using the 5-in-1 probe substrate of the CYP isozyme. Mixed human liver microsomes (HLM) were purchased from Corning Inc. (Steuben, N.Y., USA) and stored below −80° C. before use. The test compound working solution which has been diluted into serial concentrations was added to an incubation system containing human liver microsomes, probe substrates and circulating system cofactors, and a control containing solvent without the test compound was used as the enzyme activity control (100%). The concentration of the metabolite produced by the probe substrate in the sample was determined using a liquid chromatography-tandem mass spectrometry (LC-MS/MS) method. Nonlinear regression analysis was performed on the average percent activity versus concentration of subjects using SigmaPlot (V.11). The IC50 value was calculated by a three-parameter or four-parameter inverse-logarithmic equation.

[1] = target: T2, Human Pregnane X Receptor (PXR) (Homo sapiens, UniProt O75469); experiment: Human pregnane X receptor (PXR) assay, induction of PXR-mediated CYP3A expression in DPX2 cells; format: cell-based
T2 construct: host or cells: DPX2 cells
T2 sequence (O75469 1-434): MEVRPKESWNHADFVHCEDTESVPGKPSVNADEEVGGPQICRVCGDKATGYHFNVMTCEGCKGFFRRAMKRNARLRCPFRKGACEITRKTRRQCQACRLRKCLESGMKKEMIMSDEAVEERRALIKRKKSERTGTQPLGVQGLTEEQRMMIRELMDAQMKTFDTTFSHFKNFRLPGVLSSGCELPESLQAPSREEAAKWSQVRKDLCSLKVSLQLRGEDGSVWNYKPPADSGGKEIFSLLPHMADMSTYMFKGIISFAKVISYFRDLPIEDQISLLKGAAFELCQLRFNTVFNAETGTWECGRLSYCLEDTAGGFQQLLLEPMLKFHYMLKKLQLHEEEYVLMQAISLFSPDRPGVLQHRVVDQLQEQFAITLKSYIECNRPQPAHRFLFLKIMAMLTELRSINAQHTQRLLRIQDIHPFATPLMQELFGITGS
Protocol: Experimental Embodiment 3: Human Pregnane X Receptor (PXR) Assay
The effect of the compounds on the induction of PXR-mediated CYP3A expression was evaluated.
1. DPX2 cells were thawn under sterile conditions.
2. DPX2 cell solution was distributed in 96-well plate (100 μL/well), and the plate was placed in a 5% CO2/37° C. incubator overnight.
3. Quantitative feeding medium was thawn in a 37° C. water bath. Positive control rifampin was thawn at room temperature. A series of test compounds and positive control dilutions were prepared in quantitative feeding medium. The cells were carefully aspirated from each wells without disturbing the cells during aspiration and the medium was discarded. 100 μL of each test compound concentration was transferred to pre-labeled wells. The operation of the positive control group and the blank group were the same. The plate was placed back into the incubator for 24 hours exposure.
(1) 7 μL of Luciferin-IPA was added to […] feeding medium, the mixture was mixed by inverting, and poured into a Luciferin-IPA reagent tank.
(2) The 96-well plate was taken out from the incubator, and the media was carefully aspirated from each wells. 50 μL of the Luciferin-IPA reagent was added to each wells, and the cell plate was placed back into the incubator for 60 minutes.
(3) During incubation, the P450-Glo buffer was poured into the Luciferin detection reagent, and the mixture was mixed by inverting.
(4) The 96-well plate was taken out from the incubator, and 40 μL of solution from each well was transferred into the corresponding white 96-well plate, and the corresponding position of each wells was consistent with the original cell plate. […]
(8) After incubation with Luciferin detection reagent for 20 minutes, a photometer (set 1-5 seconds. Readout Time) was used to measure the luminescence of each wells of the white 96-well plate. […]
(10) After incubating for 60 minutes at 37° C., the original 96-well plate was taken out of the incubator. The reader was set to the fluorescence mode, the excitation wavelength was set to 380-400 nm, the emission wavelength was set to 505 nm, and the fluorescence intensity of each wells was measured.
(11) The cell plate was taken out of the enzyme reader, and 100 μL of ONE-Glo™ detection reagent was added to each wells. […]
(12) The enzyme reader was set to 5 seconds for pre-shaking and 5 seconds for wells reading, and the fluorescence intensity in each hole was measured. […]
The positive control was rifampicin, six concentrations were tested in each experiment. The data was analyzed using Prism to generate a concentration-response curve and the EC50 value of the compound was calculated.

## COCCNS(=O)(=O)Nc1ncnc(OCCOc2ncc(Br)cn2)c1-c1ccc2c(c1)OCO2 [WX013]
CYP2C9
  IC50: > 50 µM
[1]
  induction effect on PXR-mediated CYP3A expression (in words): relatively weak induction effect
[1]; DPX2 cells, 24 hours exposure, ± is calculation error of simulation curve, read-out: EC50, induction effect on PXR-mediated CYP3A expression
  EC50: 27.6 ± 1.33 µM
